The values below come from patent US10196357B2, “Biaryl compositions and methods for modulating a kinase cascade” (Athenex, Inc., priority 2007, dated 2019).

Experiment [1] concerns c-Src 3T3 cells. Briefly: BrdU cell growth inhibition, c-Src 3T3. It counts as cell-based, mouse. The conditions noted are these: for activity at 0.1 µM / activity at 1 µM / activity at 10 µM: NIH3T3, read-out: c-Src 3T3 Growth, % of Control Mean, n = 3; for activity at 0.1 µM: 100 nM; for GI50: c-Src 3T3 (c-Src527F/NIH3T3) cells. Here is the method: (§1) The GI50s for several of the compounds of the invention were assayed as described herein.
The cells were routinely cultured in DMEM supplemented with Fetal Bovine Serum (2.0% v/V), L-glutamine (2 mM) and Sodium Pyruvate (1 mM).
(§2) In the BrdU Assay for cell growth inhibition, quantitation of cell proliferation was based on the measurement of BrdU incorporation during DNA synthesis. The Cell Proliferation ELISA BrdU assay kit (colorimetric) was obtained from Roche Applied Science and performed as per vendor instructions.
(§3) The growth inhibition (GI) is determined from the formula GI=(T0−Tn×100/T0−CONn) where T0 is the BrdU growth of untreated cells at time “0”, Tn is the BrdU growth of treated cells at day “n” and CONn is the control BrdU growth of control cells at day “n”. The GI50 was extrapolated and the data plotted using XL-Fit 4.0 software.
(§4) For 96 well culture plate experiments, c-Src 3T3 medium was supplemented with 10 mM HEPES buffer. HT-29 cells were seeded in standard tissue culture 96-well plates and c-Src 3T3 cells were seeded in 96-well plates coated with Poly-D-lysine (BIOCOAT™). To increase CO2 diffusion, c-Src 3T3 96-well plates were incubated with their lids raised by ˜2 mm using sterile rubber caps.
(§5) Samples were reconstituted in DMSO at 20 mM and intermediate dilutions made using DMEM containing 10% FBS. […] Plates were assayed for BrdU and the data analyzed as above for GI50.
(§6) All compounds were initially prepared as 20 mM DMSO stock solutions and then diluted into buffer for the in vitro tumor growth assays. NG means no cell growth beyond the control and T means the number of cells in the drug treated wells was less than in the control (i.e. net cell loss).

Experiment [2] relates to HT29 cell line. Briefly: BrdU cell growth inhibition, HT29. It counts as cell-based, human. Particulars: for activity at 0.05 µM / activity at 0.5 µM / activity at 5 µM: HT-29, read-out: HT-29 Growth, % of Control Mean, n = 3; for activity at 0.05 µM: 50 nM; for activity at 0.5 µM: 500 nM. Here is the method: as §1
The HT29 cell line is a NCI standard human colon carcinoma cell line.
as §2, §3, §4, §5, §6
Growth Inhibition. […] T1 values≤T0 values were designated as T, cytotoxicity.

[3] abbreviates: Homo sapiens, HT-29, HT29 (Colon) cells, read-out: GI50.

Where two headings read alike, the source gives them in different places.

What is called GI50 is the concentration giving 50% growth inhibition. `O=C(Cc1ccc(-c2ccc(OCCN3CCCCC3)cc2)cn1)NCc1cccc(F)c1` [KX2-375]: in experiment [1] (Mus musculus), the activity at 0.1 µM is less than 0%, the activity at 1 µM is less than 0% and the activity at 10 µM is less than 0%. Besides, the GI50 in experiment [1] (Mus musculus, read-out: GI50) is 0.206 µM. In addition, the GI50 in experiment [2] (setting [3]) turned out to be 0.354 µM. For the same molecule, in experiment [2] (Homo sapiens), the activity at 0.05 µM worked out at 99%, the activity at 0.5 µM is less than 0% and the activity at 5 µM is less than 0%.

On to `CN1CCN(Cc2ccc(-c3ccc(CC(=O)NCc4cccc(F)c4)nc3)cc2)CC1` [KX2-376], for which, in experiment [1] (Mus musculus), the activity at 0.1 µM is less than 0%, the activity at 1 µM was less than 0% and the activity at 10 µM is less than 0%. Moreover, the GI50 in experiment [1] (Mus musculus, read-out: GI50) is greater than 1.6 µM. Also, the GI50 in experiment [2] (setting [3]) is greater than 0.4 µM. Further, in experiment [2] (Homo sapiens), the activity at 0.05 µM stood at 96%, the activity at 0.5 µM turned out to be 93% and the activity at 5 µM was less than 0%.

Turning to `O=C(Cc1ccc(-c2ccc(OCCN3CCOCC3)cc2)cn1)NCc1cccc(F)c1` [KX2-377], in experiment [1] (Mus musculus), the activity at 0.1 µM was less than 0%, the activity at 1 µM was less than 0% and the activity at 10 µM was less than 0%. Further, the GI50 in experiment [1] (Mus musculus, read-out: GI50) worked out at 0.118 µM. In addition, in experiment [2] (setting [3]), the GI50 amounted to 0.111 µM. Also, in experiment [2] (Homo sapiens), the activity at 0.05 µM is less than 0%, the activity at 0.5 µM was less than 0% and the activity at 5 µM was less than 0%.

`CCOc1ccc(-c2ccc(CC(=O)NCc3cc(F)cc(OCCN4CCOCC4)c3)nc2)cc1` [KX2-378]: in experiment [1] (Mus musculus), the activity at 0.1 µM was 122%, the activity at 1 µM amounted to 107% and the activity at 10 µM came out at 48%. Further, in experiment [2] (Homo sapiens), the activity at 0.05 µM came to 88%, the activity at 0.5 µM was determined as 61% and the activity at 5 µM was less than 0%.

Turning to `CCOc1ccc(-c2ccc(CC(=O)NCc3cc(F)cc(N4CCCCC4)c3)nc2)cc1` [KX2-379], in experiment [1] (Mus musculus), the activity at 0.1 µM is 106%, the activity at 1 µM was determined as 104% and the activity at 10 µM is less than 0%. In addition, in experiment [2] (Homo sapiens), the activity at 0.05 µM was 89%, the activity at 0.5 µM turned out to be 88% and the activity at 5 µM was less than 0%.

With `CCOc1ccc(-c2ccc(CC(=O)NCc3cc(F)cc(OCCN4CCCCC4)c3)nc2)cc1` [KX2-380], in experiment [1] (Mus musculus), the activity at 0.1 µM is 124%, the activity at 1 µM came out at 119% and the activity at 10 µM is less than 0%. Also, in experiment [2] (Homo sapiens), the activity at 0.05 µM stood at 100%, the activity at 0.5 µM amounted to 50% and the activity at 5 µM was less than 0%.

As for `CCOc1ccc(-c2ccc(CC(=O)NCc3cc(F)cc(OCC4CCN(C)CC4)c3)nc2)cc1` [KX2-381], in experiment [1] (Mus musculus), the activity at 0.1 µM amounted to 116%, the activity at 1 µM was less than 0% and the activity at 10 µM is less than 0%. For the same molecule, in experiment [1] (Mus musculus, read-out: GI50), the GI50 worked out at 0.914 µM. Moreover, the GI50 in experiment [2] (setting [3]) amounted to 0.375 µM. In experiment [2] (Homo sapiens), the activity at 0.05 µM turned out to be 58%, the activity at 0.5 µM is less than 0% and the activity at 5 µM is less than 0%.

As to `CCOc1ccc(-c2ccc(CC(=O)NCc3cc(F)cc(N4CCOCC4)c3)nc2)cc1` [KX2-382], in experiment [1] (Mus musculus), the activity at 0.1 µM is 117%, the activity at 1 µM turned out to be 114% and the activity at 10 µM was determined as 103%. In experiment [2] (Homo sapiens), the activity at 0.05 µM was 80%, the activity at 0.5 µM turned out to be 97% and the activity at 5 µM came out at 50%.

For the molecule `O=C(Cc1ccc(-c2ccc(OCCCN3CCOCC3)cc2)cn1)NCc1cccc(F)c1` [KX2-383], the GI50 in experiment [1] (Mus musculus, read-out: GI50) is 0.327 µM; in experiment [2] (setting [3]), 0.248 µM.

Turning to `CCOc1ccc(-c2ccc(CC(=O)NCc3cccc(F)c3)nc2)c(OCCN2CCN(C)CC2)c1` [KX2-384], the GI50 in experiment [1] (Mus musculus, read-out: GI50) is 1.43 µM; in experiment [2] (HT29 (Colon) cells), “inactive”.

With `CC(C)COc1cc(F)cc(CNC(=O)Cc2ccc(-c3ccc(OCCN4CCCCC4)cc3)cn2)c1` [KX2-386], the GI50 was 0.897 µM in experiment [1] (Mus musculus, read-out: GI50) and “inactive” in experiment [2] (HT29 (Colon) cells).

In the case of `CC(C)COc1cc(F)cc(CNC(=O)Cc2ccc(-c3ccc(OCCN4CCOCC4)cc3)cn2)c1` [KX2-387], the GI50 result is “inactive” in experiment [1] and 1.86 µM in experiment [2] (setting [3]).

Consider `CCOc1ccc(-c2ccc(CC(=O)NCc3cc(F)cc(N4CCN(C)CC4)c3)nc2)cc1` [KX2-388], for which the GI50 is greater than 1.6 µM in experiment [1] (Mus musculus, read-out: GI50) and 0.906 µM in experiment [2] (setting [3]).

On to `CCOc1ccc(-c2ccc(CC(=O)NCc3cccc(F)c3)nc2)c(OCCN2CCCCC2)c1` [KX2-389], for which the 50% growth inhibitory concentration (GI50) result in experiment [1] is “Inactive”; in experiment [2] (HT29 (Colon) cells) it was “inactive”.

For `CN1CCN(CCCOc2ccc(-c3ccc(CC(=O)NCc4cccc(F)c4)nc3)cc2)CC1` [KX2-390], the GI50 in experiment [1] (Mus musculus, read-out: GI50) came to 0.797 µM; in experiment [2] (setting [3]) it was 0.868 µM.

On to `O=C(Cc1ccc(-c2ccc(OCCN3CCOCC3)cc2F)cn1)NCc1cccc(F)c1` [KX2-392], for which the GI50 stood at 0.013 µM in experiment [1] (Mus musculus, read-out: GI50) and 0.021 µM in experiment [2] (setting [3]).

For `O=C(Cc1ccc(-c2ccc(CN3CCOCC3)cc2F)cn1)NCc1cccc(F)c1` [KX2-393], the GI50 was determined as 0.024 µM in experiment [1] (Mus musculus, read-out: GI50) and 0.052 µM in experiment [2] (setting [3]).

Consider `COc1cc(Nc2c(C#N)cnc3cc(OCCCN4CCN(C)CC4)c(OC)cc23)c(Cl)cc1Cl` [SKI-606], for which the GI50 in experiment [1] (Mus musculus, read-out: GI50) turned out to be 0.208 µM; in experiment [2] (setting [3]), 0.173 µM.
